Assay results taken from patent US4894388A, “Glycosidase inhibitors and use thereof” (priority 1988, dated 1990).

Experiments:
[1] = target: T1, β-D-mannosidase (Homo sapiens, UniProt O00462); assay: Inhibition of β-D-mannosidase in human liver extract; format: biochemical; details: 1 mM inhibitor; 0.5 mM substrate; optimal pH; mean of 2-4 determinations
T1 construct: The glycosidase activities in an extract of normal human liver were assayed; from tissue; host or cells: post mortem human liver, 37,000 g supernatant
T1 sequence (O00462 18-879): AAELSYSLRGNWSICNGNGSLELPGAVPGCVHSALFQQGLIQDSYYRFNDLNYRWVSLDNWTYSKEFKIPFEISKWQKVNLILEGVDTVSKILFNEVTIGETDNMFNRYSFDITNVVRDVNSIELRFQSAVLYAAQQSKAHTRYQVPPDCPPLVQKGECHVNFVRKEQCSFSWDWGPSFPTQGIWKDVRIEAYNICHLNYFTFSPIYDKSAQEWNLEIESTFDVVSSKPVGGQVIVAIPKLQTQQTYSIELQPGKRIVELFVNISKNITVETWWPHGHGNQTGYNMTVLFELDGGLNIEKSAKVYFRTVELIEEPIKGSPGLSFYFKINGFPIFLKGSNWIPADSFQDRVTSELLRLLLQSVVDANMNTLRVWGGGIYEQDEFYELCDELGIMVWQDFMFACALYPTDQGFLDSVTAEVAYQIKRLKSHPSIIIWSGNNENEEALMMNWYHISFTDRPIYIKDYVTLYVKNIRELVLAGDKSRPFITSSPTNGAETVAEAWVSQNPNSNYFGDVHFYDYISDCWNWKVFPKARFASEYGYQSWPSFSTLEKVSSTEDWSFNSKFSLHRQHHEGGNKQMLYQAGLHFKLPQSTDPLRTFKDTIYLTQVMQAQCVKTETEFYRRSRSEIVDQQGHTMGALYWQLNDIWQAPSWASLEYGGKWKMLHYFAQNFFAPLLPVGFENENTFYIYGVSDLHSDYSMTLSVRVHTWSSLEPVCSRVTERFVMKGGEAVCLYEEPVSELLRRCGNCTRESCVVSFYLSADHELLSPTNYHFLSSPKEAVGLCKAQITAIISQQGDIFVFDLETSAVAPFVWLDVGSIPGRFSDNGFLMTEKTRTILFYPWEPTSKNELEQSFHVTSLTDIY
Protocol: (§1) Post mortem human liver, which had been stored at -20° C. until required was homogenized in deionized water (50%, w/v) in a Potter-Elvehjem homogenizer and then centrifuged at 37,000 g for 30 min in an MSE 18 centrifuge. The resultant supernatant was used as the source of enzymic activities.
(§2) The glycosidase activities in an extract of normal human liver were assayed by using the appropriate fluorigenic 4-methylumbelliferyl glycoside substrate (Koch-Light, Haverhill, Suffolk, U.K.) with a concentration of 0.5 mM at the optimal pH of each enzyme [Burditt et al., Clin. Chim. Acta 140, 201-209 (1980)]. Human liver acidic (lysomal) and neutral (cystosolic) α-D-mannosidases were assayed similarly at their pH-optima, of 4.0 and 6.5, respectively, after separation by affinity chromatography on concanavalin A-Sepharose® (Pharmacia Ltd, Milton Keynes, Bucks, U.K.) [Phillips et al., Biochem. J. 153, 579-587 (1976)]. The residual intermediate (Golgi) α-mannosidase II activity in extracts of fibroblasts from a patient with the lysosomal storage disease, mannosidosis, was assayed at pH 5.75 using the synthetic substrate (Burditt et al, Ibid.). The specificity of the inhibitors was determined by assaying the glycosidases in the presence and absence of a 1 mM solution of each compound. The nature of the inhibition and the value of Ki were determined using the Dixon graphical procedure.
(§3) Enzymic activities were measured in the presence and absence of 1 mM inhibitor. Inhibition (%) was calculated as the fraction of activity lost in the presence of inhibitor. The values are means of two to four independent determinations.

[2] = target: T2, cytosolic (neutral) α-D-mannosidase (Homo sapiens, UniProt Q9NTJ4); assay: Inhibition of cytosolic (neutral) α-D-mannosidase, fluorigenic 4-methylumbelliferyl glycoside substrate; format: biochemical; details: for inhibition at 1000 µM: 1 mM inhibitor, 0.5 mM substrate, pH 6.5, mean of 2-4 determinations
T2 construct: Post mortem human liver, which had been stored at -20° C; from tissue; host or cells: post mortem human liver, 37,000 g supernatant; concanavalin A-Sepharose fraction
T2 sequence (Q9NTJ4 1-1040): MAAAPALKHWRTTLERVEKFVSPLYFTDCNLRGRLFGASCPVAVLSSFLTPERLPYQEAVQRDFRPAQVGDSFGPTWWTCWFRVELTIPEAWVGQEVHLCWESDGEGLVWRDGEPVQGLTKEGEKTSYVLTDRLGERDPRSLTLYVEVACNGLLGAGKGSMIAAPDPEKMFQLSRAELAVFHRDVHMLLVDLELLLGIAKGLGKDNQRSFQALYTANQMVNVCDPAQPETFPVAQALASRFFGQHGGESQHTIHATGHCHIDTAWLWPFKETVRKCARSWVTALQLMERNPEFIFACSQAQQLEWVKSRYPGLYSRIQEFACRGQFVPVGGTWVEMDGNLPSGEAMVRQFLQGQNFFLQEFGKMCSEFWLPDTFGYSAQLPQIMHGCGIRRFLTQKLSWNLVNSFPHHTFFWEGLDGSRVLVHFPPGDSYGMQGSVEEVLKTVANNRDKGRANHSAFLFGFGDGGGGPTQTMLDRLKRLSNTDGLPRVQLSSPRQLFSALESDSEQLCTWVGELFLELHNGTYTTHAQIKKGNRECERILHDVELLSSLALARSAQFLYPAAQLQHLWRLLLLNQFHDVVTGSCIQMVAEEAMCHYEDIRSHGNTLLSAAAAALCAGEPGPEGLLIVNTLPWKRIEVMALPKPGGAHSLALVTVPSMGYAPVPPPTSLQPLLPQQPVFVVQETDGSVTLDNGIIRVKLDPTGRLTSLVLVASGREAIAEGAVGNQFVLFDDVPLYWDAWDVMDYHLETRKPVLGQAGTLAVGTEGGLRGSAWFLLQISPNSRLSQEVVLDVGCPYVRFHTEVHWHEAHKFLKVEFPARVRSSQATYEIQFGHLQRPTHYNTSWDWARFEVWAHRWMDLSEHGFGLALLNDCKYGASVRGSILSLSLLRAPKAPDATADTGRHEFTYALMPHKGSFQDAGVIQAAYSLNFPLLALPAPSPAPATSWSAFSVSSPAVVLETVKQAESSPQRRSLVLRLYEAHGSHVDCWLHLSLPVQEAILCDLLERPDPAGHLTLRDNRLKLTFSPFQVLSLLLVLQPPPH
Protocol: as §1, §2, §3

SMILES	inhibition at 1000 µM [1] [%]	inhibition at 1000 µM [2] [%]	inhibition of neutral cytosolic α-D-mannosidase (in words) ([2]; relative to α-D-mannosidase II)
OC[C@H](O)[C@@H]1NC[C@@H](O)[C@H]1O [DIA, 1,4-dideoxy-1,4-imino-L-allitol]	14	61	to a lesser extent
OC[C@H](O)[C@H]1[C@H](O)[C@H](O)CN1Cc1ccccc1 [N-benzyl DIA, N-benzyl-1,4-dideoxy-1,4-imino-L-allitol]	0	4	
CN1C[C@@H](O)[C@@H](O)[C@@H]1[C@@H](O)CO [N-methyl DIA, N-methyl-1,4-dideoxy-1,4-imino-L-allitol]	4	20	
